Experiments:
[1] = tissue irritation at the intramuscular injection site; format: in vivo; conditions: intramuscular (IM) injectable solution in water-miscible co-solvent and water-immiscible solvent/co-solvent systems
[2] = aqueous solubility; format: physicochemical; conditions: water; at room temperature

solubility [2]: < 1 µg/mL
Structure (SMILES): O=C1CCc2ccc(OCCCCN3CCN(c4cccc(Cl)c4Cl)CC3)cc2N1 [Aripiprazole]
tissue irritation at the muscular site [1]: unacceptable (moderate to severe) tissue irritation
